Paper PMC7529893, “Structural basis for substrate recognition and chemical inhibition of oncogenic MAGE ubiquitin ligases” (Nature Communications, 2020)

Target: T1, MAGE-A11:PCF11 interaction (GST-MAGE-A11 and FAM-PCF11_4) (Homo sapiens, UniProt P43364)
T1 construct: GST-MAGE-A11 MHD (human MAGE-A11 MHD amino acid 218-429); made in house; host or cells: E. coli BL21(DE3)
T1 sequence (P43364 218-429): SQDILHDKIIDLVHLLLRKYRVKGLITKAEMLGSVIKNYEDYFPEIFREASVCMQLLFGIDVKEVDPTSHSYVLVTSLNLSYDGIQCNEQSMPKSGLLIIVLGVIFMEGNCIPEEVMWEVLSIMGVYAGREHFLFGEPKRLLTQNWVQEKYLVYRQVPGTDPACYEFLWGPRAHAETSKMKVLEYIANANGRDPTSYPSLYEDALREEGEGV
Assay: TR-FRET primary / single point screen at 15 µM
Format: binding
Conditions: single point TR-FRET screening of 797 quinoline compounds against MAGE-A11:PCF11
In short: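 Single-point screen at 15 µM final compound in 50 mM Tris pH 7.5, 20 mM MgCl2, 0.1 mg/ml BSA, 1 mM DTT, with 200 nM FAM-PCF11_4, 5 nM Tb-anti-GST and 5 nM GST-MAGE-A11. After 90 min at room temperature, the 520/490 nm TR-FRET ratio (340 nm excitation) gave %Inhibition against no-MAGE-A11 and DMSO controls.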

percent inhibition (TR-FRET)	Compound
5.094	COc1cccc(F)c1CN(CCCCNc1ccnc2cc(Cl)ccc12)Cc1ccccc1 [SJ000357501]
-4.381	Clc1ccc2c(NC3CCN(Cc4ccc(Br)o4)CC3)ccnc2c1 [SJ000357512]
-5.899	CCOc1ccc2ncc(S(=O)(=O)c3ccc(C)cc3)c(N3CCN(CC)CC3)c2c1 [SJ000083964]
-5.441	O=S(=O)(c1ccccc1)c1cnc2ccc(Cl)cc2c1N1CCN(c2ccccc2F)CC1 [SJ000315176]
4.988	CN(C)c1cc(NC(=O)CN2CCOCC2)c2ccccc2n1 [SJ000111677]
-99.0552	O=S(=O)(c1ccccc1)c1cnc2ccc(F)cc2c1N1CCN(c2ccccc2F)CC1 [SJ000315166]
-9.084	CCOc1ccc2ncc(C(=O)c3ccc(OC)cc3)c(N3CCN(CC)CC3)c2c1 [SJ000247243]
-17.9415	COc1ccc(N2CCN(c3c(S(=O)(=O)c4ccccc4)cnc4ccc(Cl)cc34)CC2)cc1 [SJ000083983]
35.3677	CCC(C)CN(CCCCNc1ccnc2cc(Cl)ccc12)Cc1ccccc1 (stereo not shown) [SJ000361208]
42.3236	Cc1ccc(F)cc1CN(CCCCNc1ccnc2cc(Cl)ccc12)Cc1ccccc1 [SJ000520449]
5.291	CCOC(=O)c1cnc2ccc(OCC)cc2c1NCCN1CCOCC1 [SJ000027289]
-146.21	CCCN(CCCNc1c2ccc(Cl)cc2nc2ccc(OC)cc12)Cc1ccccn1 [SJ000520919]
0.2213	CCN1CCN(c2c(S(=O)(=O)c3ccc(C)cc3)cnc3ccc(C)cc23)CC1 [SJ000083961]
-228.339	CCCN(CCCNc1c2ccc(Cl)cc2nc2ccc(OC)cc12)Cc1ccccc1[N+](=O)[O-] [SJ000520947]
-13.1252	Cc1cccc(N2CCN(c3c(S(=O)(=O)c4ccccc4)cnc4ccccc34)CC2)c1C [SJ000117081]
-184.229	COc1ccc2nc3cc(Cl)ccc3c(NCCCNCc3ccc4[nH]ccc4c3)c2c1 [SJ000520914]
9.5313	Clc1ccc2c(NCCCCN(Cc3ccccc3)Cc3ccccn3)ccnc2c1 [SJ000312690]
-187.09	CCCN(CCCNc1c2ccc(Cl)cc2nc2ccc(OC)cc12)Cc1c(F)cccc1OC [SJ000522733]

Same assay, conditions: single point TR-FRET screening of quinoline compounds against MAGE-A11:PCF11; 15 µM

percent inhibition (TR-FRET)	Compound
24.558	COc1ccccc1Oc1ccc2c(NCCCNCc3ccco3)ccnc2c1 [SJ000311210]
-37.4059	CCCN(CCCCCC(=O)OC)CCCNc1c2ccc(Cl)cc2nc2ccc(OC)cc12 [SJ000575151]
22.2827	CCCN(CCCNc1ccnc2cc(C(F)(F)F)ccc12)CC(C)CC (stereo not shown) [SJ000523081]
9.575	CCCN(CCCNc1ccnc2cc(Cl)ccc12)Cc1ccc([N+](=O)[O-])o1 [SJ000523047]
64.537	c1ccc(Cc2ccc3c(NCCCNCc4ccco4)ccnc3c2)cc1 [SJ000311306]
22.7145	CCCN(CCCNc1ccnc2cc(Cl)ccc12)Cc1cccn1C [SJ000523014]
4.695	Clc1ccc2c(NCCCNCc3nc4ccccc4s3)ccnc2c1 [SJ000521034]
9.266	CCCN(CCCNc1ccnc2cc(Cl)ccc12)Cc1ccc(-c2ccccc2[N+](=O)[O-])o1 [SJ000523044]
-1.532	CCCN(CCCNc1ccnc2cc(Cl)ccc12)Cc1cn(C)c2ccccc12 [SJ000522995]
18.1434	CCCN(CCCNc1ccnc2cc(Cl)ccc12)Cc1cccc2c1OCO2 [SJ000357594]
11.4651	Clc1ccc2c(NCCCNCC3CC3)ccnc2c1 [SJ000361101]
9.295	CCCN(CCCNc1ccnc2cc(Cl)ccc12)Cc1ccncc1 [SJ000357449]
25.8235	CCCN(CCCNc1ccnc2cc(C(F)(F)F)ccc12)CCOCc1ccccc1 [SJ000521011]
